From patent publication US5234937A, “3,5-di-tertiary-butyl-4-hydroxphenyl oxazolyl methanones and related compounds as antiinflammatory agents” (Warner-Lambert Company, priority 1991, dated 1993) come the findings set out here.

One test addresses T1, 5-Lipoxygenase (Rattus norvegicus, UniProt P12527).
T1 construct: host or cells: RBL-1 (rat basophilic leukemia)
T1 sequence (P12527 1-673): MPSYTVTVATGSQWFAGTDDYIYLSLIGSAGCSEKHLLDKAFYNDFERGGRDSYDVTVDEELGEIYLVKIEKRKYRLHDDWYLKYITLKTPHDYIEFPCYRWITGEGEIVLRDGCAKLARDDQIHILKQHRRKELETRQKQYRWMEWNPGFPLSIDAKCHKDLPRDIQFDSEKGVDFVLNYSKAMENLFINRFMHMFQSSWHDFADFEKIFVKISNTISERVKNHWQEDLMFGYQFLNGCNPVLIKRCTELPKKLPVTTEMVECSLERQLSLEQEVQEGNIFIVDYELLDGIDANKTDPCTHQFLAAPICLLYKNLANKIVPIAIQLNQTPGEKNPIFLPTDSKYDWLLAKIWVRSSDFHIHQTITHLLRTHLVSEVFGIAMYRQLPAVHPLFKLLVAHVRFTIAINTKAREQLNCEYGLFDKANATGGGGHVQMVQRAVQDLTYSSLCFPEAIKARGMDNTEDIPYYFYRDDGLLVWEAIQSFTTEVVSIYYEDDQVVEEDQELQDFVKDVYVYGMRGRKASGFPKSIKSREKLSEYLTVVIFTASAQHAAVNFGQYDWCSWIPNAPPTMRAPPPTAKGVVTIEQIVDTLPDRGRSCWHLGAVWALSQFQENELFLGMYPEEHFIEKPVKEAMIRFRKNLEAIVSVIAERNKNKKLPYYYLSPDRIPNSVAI
In words: ARBL whole cell 5-lipoxygenase assay (LTB4 formation, RBL-1 cells). The class given is cell-based. The following applies: A23187 stimulated; for inhibition at 10 µM: read-out: ARBL Percent inhibition of LTB4 @ 10 μM. How it is done: (§1) ARBL/ARBC Cell 5-Lipoxygenase and Cyclooxygenase Assays The rat basophilic leukemia cell line (RBL-1) was obtained from the American Type Culture Collection (Rockville, MD). Radioimmunoassay (RIA) kits of LTB4 and PGF2α were obtained from Amersham (Arlington Heights, IL) and Seragen (Boston, MA), respectively. RBL-1 cells are grown in suspension culture in Eagle's minimum essential medium supplemented with 12% fetal bovine serum at 37° C in an incubator supplied with air-5% carbon dioxide. Cells are harvested by centrifugation. They are washed with cold phosphate buffered saline pH 7.4 (PBS; NaCl, 7.1 g; Na2 HPO4, 1.15 g; KH2 PO4, 0.2 g; and KCl, 0.2 g/L). Cells are finally suspended in PBS containing 1.0 mM calcium at a density of 2×10^6 cells/mL. Cells are incubated with and without test agent (in DMSO) (1% DMSO is without effect on arachidonic acid metabolism) for 10 minutes at room temperature. Calcium ionophore A23187 (5 μM) is added and cells are incubated for 7 minutes at 37° C. The reaction is stopped by chilling the tubes on ice for 10 minutes. Cells are separated by centrifugation and the supernatant is stored at -20° C. Aliquots (100 μ L) are analyzed for LTB4 and PGF2α using radioimmunoassay kits as provided by the supplier. Table I contains biochemical data obtained from this whole cell assay as IC50 s which are calculated as the amount of test compound causing 50% inhibition or % of inhibition at the named micromoles (μM) of […] or PGF2α formation.

Another test relates to Cyclooxygenase. In words: ARBC whole cell cyclooxygenase assay (PGF2α formation, RBL-1 cells). The class given is cell-based, rat. The following applies: A23187 stimulated. The method, then:
as §1

The test system of test [1] is Carrageenan-induced rat foot paw edema. In words: Carrageenan-induced rat foot paw edema 2 (CFE 2) assay. The class given is in vivo. The following applies: 3 mg/kg, dosed 1 hour before carrageenan, edema measured 5 hours after carrageenan. The method, then: Carraogenan-Induced Rat Foot Paw Edema 2 (CFE 2) Assay: Protocol
Carageenan solution (1% w/v) is prepared by dissolving 100 mg carrageenan (Marine Colloidal Div., Springfield, NJ) in 10 mL of sterile saline (0.9%) solution (Travenol). The solution is vortexed for 30 to 45 minutes. Animals are dosed with compound 1 hour before carrageenan challenge. Foot paw edema is induced by injecting 0.10 mL of the 1% carrageenan subcutaneously into the plantar portion of the right hind paw of each rat under light anesthesia. Initial foot paw volume is measured immediately following carrageenan challenge using mercury plethysmography (Buxco Electronics). Edema is measured 5 hours after carrageenan. The difference between the 5-hour and the initial paw volume is expressed as delta edema. The delta edema for each test group of animals is used to calculate the percent inhibition of edema achieved by the compound at the test dose compared with the vehicle control group. The data in Table I (the dose at which swelling is inhibited by the noted percent) is calculated by probit analysis for the dose at which percent inhibition occurs.

With `CON=C(c1cc(C(C)(C)C)c(O)c(C(C)(C)C)c1)c1cc(C)on1` [Example 14], the inhibition – broadly, how much of the control response was suppressed – at 10 µM on 5-Lipoxygenase amounted to 100%. The “ARBC Percent inhibition of PGF2α @ 10 μM” value in the test on Cyclooxygenase came out at 97%.

Consider `CC(C)(C)c1cc(C(=O)c2nccs2)cc(C(C)(C)C)c1O` [Example 4, [3,5-Bis(1,1 dimethylethyl)-4-hydroxyphenyl]-2-thiazolylmethanone], for which, at 5-Lipoxygenase, the inhibition at 10 µM is 91%. In addition, the “ARBC Percent inhibition of PGF2α @ 10 μM” value in the test with Cyclooxygenase is on record as 91%.

Consider `Cc1cc(C(=O)c2cc(C(C)(C)C)c(O)c(C(C)(C)C)c2)no1` [Example 1, [3,5-Bis(1,1-dimethylethyl)-4-hydroxyphenyl](5-methyl-3-isoxazolyl)methanon], for which the IC50 (usually the concentration needed to halve the response being measured) was found to be 0.83 µM on 5-Lipoxygenase (LTB4 by RIA, read-out: ARBL IC50 for LTB4 inhibition) and 0.06 µM in the test on Cyclooxygenase (PGF2α by RIA). In addition, the “CFE percent inhibition of edema” value in test [1] was 37%.
